{
  "source": "patent US12714688B2",
  "about": "“Margaric acid decreases PIEZ02-mediated pain” (The United States of America, as represented by The …, priority 2020, dated 2026)",
  "key": {"[1]": {"tested_on": "mouse DRG neurons", "assay": "Current-clamp recording of action potentials elicited by mechanical stimuli in mouse DRG neurons", "type": "cell-based", "from_the_text": "Subsequent sweeps had increments of 1 μm."}, "[2]": {"tested_on": "mouse DRG neurons", "assay": "Electrical excitability of mouse DRG neurons (voltage-gated currents, membrane potential, current injection)", "type": "cell-based"}, "[3]": {"tested_on": "mechano-activated currents of DRG neurons", "assay": "Bradykinin sensitization of mechano-activated currents in mouse DRG neurons", "type": "cell-based"}, "[4]": {"tested_on": "mice", "assay": "Von Frey test after acute inflammation by topical AITC", "type": "in vivo, mouse", "settings": "MA treatment for 7 days, then AITC", "method": "Mice behavior: MA solution: MA was prepared in sterile Dulbecco's phosphate buffered saline, with 70 g/L fatty acid free bovine serum albumin (BSA; Sigma), and MA to a final concentration of 5 mM. The solution was filtered to avoid undissolved materials.\nSubjects: For the experiment 8-12 weeks old male and female C57B16/J mice (N=12; control n=6; male=3, female=3) MA (n=6; male=3, female=3) per experiment were used. Mice were housed under a 12 hr light dark cycle and granted access to food and water ad libitum.\nTreatment: Animals were put in two groups (control and MA) and given injections in the plantar of the left hind paw for 7 days prior behavioral assessment. Injections were given as follows: Mouse is restrained by their tail, foot, and over shoulders scruff. […]\nMechanical threshold (Von Frey test): Punctate mechanical allodynia was measured using Von Frey monofilaments (Stoelting, Inc.) in varying grams of force (0.008-1 g). Animals were placed in small enclosures over a wire mesh and the plantar of the hind paw was poked with a filament and responses were recorded. Withdrawal responses were recorded when the animal lifted, shook, or licked the paw in response to stimulus presentation. […]"}, "[5]": {"molecular_target": "T1, endogenous PIEZO2 (Homo sapiens, UniProt Q9H5I5)", "T1 construct": "endogenous in cells; host or cells: sensory neurons differentiated from human WTC11 iPSC line", "T1 sequence (Q9H5I5 whole entry)": "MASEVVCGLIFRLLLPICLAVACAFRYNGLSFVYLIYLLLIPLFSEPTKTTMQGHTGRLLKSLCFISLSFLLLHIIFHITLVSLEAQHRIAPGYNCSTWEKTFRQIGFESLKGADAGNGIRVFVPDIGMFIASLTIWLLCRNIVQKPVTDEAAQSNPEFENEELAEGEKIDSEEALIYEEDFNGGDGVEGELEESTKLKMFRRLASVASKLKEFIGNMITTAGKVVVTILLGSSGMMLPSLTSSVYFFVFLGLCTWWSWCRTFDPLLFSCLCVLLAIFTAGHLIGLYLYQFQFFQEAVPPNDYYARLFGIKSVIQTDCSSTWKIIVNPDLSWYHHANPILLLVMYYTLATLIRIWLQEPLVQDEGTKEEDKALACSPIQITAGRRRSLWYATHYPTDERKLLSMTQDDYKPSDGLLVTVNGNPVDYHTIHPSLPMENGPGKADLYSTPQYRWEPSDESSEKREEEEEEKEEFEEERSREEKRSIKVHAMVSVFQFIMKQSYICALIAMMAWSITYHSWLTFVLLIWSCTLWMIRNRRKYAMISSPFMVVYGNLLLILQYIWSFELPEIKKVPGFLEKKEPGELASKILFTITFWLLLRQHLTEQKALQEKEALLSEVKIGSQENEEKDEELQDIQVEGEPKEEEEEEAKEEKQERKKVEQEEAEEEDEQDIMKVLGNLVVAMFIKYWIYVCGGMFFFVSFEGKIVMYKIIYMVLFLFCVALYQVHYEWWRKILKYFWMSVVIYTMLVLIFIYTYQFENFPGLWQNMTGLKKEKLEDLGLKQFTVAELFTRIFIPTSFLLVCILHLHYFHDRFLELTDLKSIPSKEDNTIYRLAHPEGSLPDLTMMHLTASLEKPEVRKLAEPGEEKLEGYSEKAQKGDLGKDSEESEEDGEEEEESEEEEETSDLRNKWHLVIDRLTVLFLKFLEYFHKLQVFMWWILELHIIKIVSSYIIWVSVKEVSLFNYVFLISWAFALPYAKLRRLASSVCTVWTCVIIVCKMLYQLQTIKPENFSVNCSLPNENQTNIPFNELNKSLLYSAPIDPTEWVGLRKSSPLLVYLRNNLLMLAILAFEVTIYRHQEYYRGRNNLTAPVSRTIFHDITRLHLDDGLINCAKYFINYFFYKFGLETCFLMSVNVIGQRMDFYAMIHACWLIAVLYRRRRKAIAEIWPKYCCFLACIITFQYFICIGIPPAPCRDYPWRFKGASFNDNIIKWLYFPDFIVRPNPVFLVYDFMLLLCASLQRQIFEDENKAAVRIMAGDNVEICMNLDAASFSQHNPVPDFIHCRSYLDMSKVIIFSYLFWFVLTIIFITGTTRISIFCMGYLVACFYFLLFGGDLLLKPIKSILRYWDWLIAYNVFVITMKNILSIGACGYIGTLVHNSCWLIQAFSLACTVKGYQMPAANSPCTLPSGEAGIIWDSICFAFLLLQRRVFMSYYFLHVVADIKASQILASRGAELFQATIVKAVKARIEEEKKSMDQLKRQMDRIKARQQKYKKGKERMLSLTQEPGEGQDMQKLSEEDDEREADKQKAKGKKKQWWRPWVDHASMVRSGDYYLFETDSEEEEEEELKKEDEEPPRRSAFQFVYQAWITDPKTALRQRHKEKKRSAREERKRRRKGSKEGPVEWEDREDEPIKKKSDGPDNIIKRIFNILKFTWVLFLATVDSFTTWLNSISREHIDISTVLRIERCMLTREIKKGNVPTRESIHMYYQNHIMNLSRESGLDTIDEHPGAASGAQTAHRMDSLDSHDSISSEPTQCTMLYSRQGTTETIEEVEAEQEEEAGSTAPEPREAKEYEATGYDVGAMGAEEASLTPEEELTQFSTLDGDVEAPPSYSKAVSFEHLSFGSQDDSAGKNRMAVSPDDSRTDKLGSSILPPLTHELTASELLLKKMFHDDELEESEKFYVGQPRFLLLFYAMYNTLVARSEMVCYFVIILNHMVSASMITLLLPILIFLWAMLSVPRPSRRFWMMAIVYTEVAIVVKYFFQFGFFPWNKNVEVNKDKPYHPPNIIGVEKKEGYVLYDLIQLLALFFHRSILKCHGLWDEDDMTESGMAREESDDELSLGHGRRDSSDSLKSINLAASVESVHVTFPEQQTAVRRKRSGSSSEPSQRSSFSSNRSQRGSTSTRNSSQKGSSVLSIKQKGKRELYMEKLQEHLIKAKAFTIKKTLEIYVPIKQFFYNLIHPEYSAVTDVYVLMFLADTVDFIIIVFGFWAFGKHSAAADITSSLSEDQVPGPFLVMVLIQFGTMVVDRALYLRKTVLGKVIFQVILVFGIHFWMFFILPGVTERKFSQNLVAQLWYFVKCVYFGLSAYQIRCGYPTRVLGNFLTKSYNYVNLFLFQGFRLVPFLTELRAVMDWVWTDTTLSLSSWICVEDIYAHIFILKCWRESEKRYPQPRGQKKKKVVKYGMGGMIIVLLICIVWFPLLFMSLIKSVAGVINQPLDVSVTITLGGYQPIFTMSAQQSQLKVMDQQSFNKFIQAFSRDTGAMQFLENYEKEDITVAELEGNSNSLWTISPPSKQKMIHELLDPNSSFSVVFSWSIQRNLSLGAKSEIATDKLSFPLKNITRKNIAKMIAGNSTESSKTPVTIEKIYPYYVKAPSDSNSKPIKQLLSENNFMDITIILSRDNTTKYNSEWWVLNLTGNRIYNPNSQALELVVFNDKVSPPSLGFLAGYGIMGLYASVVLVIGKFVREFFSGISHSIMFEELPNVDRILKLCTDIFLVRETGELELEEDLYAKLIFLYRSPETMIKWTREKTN", "assay": "Whole-cell patch-clamp of mechanically activated currents in human iPSC-derived neurons", "type": "cell-based", "from_the_text": "(§1) Human iPSC-derived neurons: For generating human peripheral sensory neuron cultures, a version of the healthy control WTC11 iPSC line was used. This line was previously engineered to harbor a doxycycline-inducible NGN2-BRN3A construct that enables rapid and efficient sensory neuron differentiation. Undifferentiated iPSCs were maintained in E8 flex medium (invitrogen) on polystyrene plates coated with Matrigel® (Corning). The medium was exchanged every 1-3 days, and the cells were passaged every 4-7 days with Accutase® (Invitrogen) and plated overnight with 10 μM of the ROCK-inhibitor Y-27632 (Tocris). For sensory neuron differentiation, iPSCs were seeded at 20,000 cells·(cm2)−1 in neural differentiation medium (NDM) on Matrigel®-coated plates. The cells were then re-plated after 48 hours at 50,000 cells·(cm^2)^−1 onto dishes coated with polyethylenimine (Sigma-Aldrich) and laminin (Invitrogen). NDM consisted of (all from Invitrogen) 1:1 DMEM/F12 and Neurobasal™ medium supplemented with N2, B27, and GlutaMAX™ at manufacturer-recommended dilution. 2 μg·ml^−1 doxycycline (Clontech) was included in the medium for the duration of the culture, 10 μM."}, "[6]": {"tested_on": "human iPSC-derived neurons", "assay": "Voltage-activated currents in human iPSC-derived neurons", "type": "cell-based", "settings": "300 μM vs control", "from_the_text": "as §1, with “μM. Y-27632 was supplemented for the first 48 hours, and the following neurotrophic factors were added from day 8 onward at 10 ng/ml each (all from R&D systems): BDNF, GDNF, β-NGF, and NT-3. […]” for “μM.”"}, "[7]": {"settings": "also human Piezo2 in N2A^Piezo1−/− cells (FIG. 14c-d)"}},
  "note": "Entries after “also recorded” stand apart in the source; their conditions may differ.",
  "data": [
    {"smiles": "CCCCCCCCCCCCCCCCC(=O)O", "note": "[MA, heptadecanoic acid]", "values": [
      {"measurement": "action potential firing elicited by mechanical stimuli", "setting": "[1]; 300 μM", "result": "reduces neuronal action potential firing elicited by mechanical stimuli; also recorded: decreases action potentials elicited by mechanical stimuli; also recorded: specifically decrease action potential firing evoked by mechanical stimulation"},
      {"measurement": "indentation steps eliciting action potentials", "setting": "[1]; 300 μM, control 7-12 μm", "result": 12, "unit": "μm"},
      {"measurement": "action potential generation", "setting": "[1]; 300 μM, indentation steps smaller than 12 μm", "result": "completely inhibits action potential generation"},
      {"measurement": "mechanical threshold required to fire action potentials", "setting": "[1]; MA supplementation", "result": "increases the mechanical threshold required for DRG neurons to fire action potentials"},
      {"measurement": "action potentials evoked by 1 Hz mechanical stimulus trains", "setting": "[1]; MA-enriched neurons vs control", "result": "evoked less action potentials than the control"},
      {"measurement": "electrical excitability", "setting": "[2]; 300 μM", "result": "does not alter mouse DRG neurons electrical excitability; also recorded: does not alter DRG neuronal electrical excitability"},
      {"measurement": "action potential firing elicited by current injection", "setting": "[2]; 300 μM vs control", "result": "no difference in action potential firing elicited by current injection"},
      {"measurement": "amplitudes of voltage-activated inward Na+ and outward K+ currents", "setting": "[2]; 300 μM vs control", "result": "no significant differences"},
      {"measurement": "membrane potential", "setting": "[2]; 300 μM, whole-cell configuration", "result": "did not alter membrane potential"},
      {"measurement": "current density after bradykinin administration", "setting": "[3]; MA 300 μM 18 h, bradykinin 1 μM perfusion, 10 μm displacement, mean±SD, control 3.36±1.68", "result": "3.64±1.96", "unit": "pA/pF"},
      {"measurement": "mechano-currents after sensitization with bradykinin", "setting": "[3]; MA 300 μM 18 h, acute bradykinin 1 μM", "result": "decreases the mechano-currents, even after sensitization with bradykinin"},
      {"measurement": "current densities after combined overnight incubation with bradykinin", "setting": "[3]; bradykinin 1 μM and MA 300 μM, 18 h both", "result": "restored the current densities to those of control neurons"},
      {"measurement": "responses to von Frey filaments after topical AITC", "setting": "[4]", "result": "does not increase hyper-responsivity to punctate stimuli; also recorded: responded with sensitivities similar to their basal response"},
      {"measurement": "effect on PIEZO2 currents", "setting": "[5]; 50 μM each day for 5 days", "result": "significantly decreased PIEZO2 currents"},
      {"measurement": "effect on endogenous PIEZO2 currents", "setting": "[5]; 300 and 600 μM overnight", "result": "significantly reduced endogenous PIEZO2 currents"},
      {"measurement": "mechanical threshold needed to activate the human channel", "setting": "[5]; [7]", "result": "increased the mechanical threshold needed to activate the human channel"},
      {"measurement": "time constant of inactivation", "setting": "[5]; [7]", "result": "without altering the time constant of inactivation"},
      {"measurement": "voltage-activated inward Na+ and outward K+ currents", "setting": "[6]", "result": "did not change voltage-activated inward Na+ and outward K+ currents"}
    ]}
  ]
}
